According to PubChem BioAssay AID330 (DTP/NCI, 2004):
Where “and” joins values, the source holds several entries; their conditions need not be identical. Equal values may be shown once. Toxic doses and inconclusive results are not listed. Rule for the calls: active = survival T/C of 150% or more; inactive = T/C below 125% in these data.

System: P388 leukemia ip, CD2F1 mice, survival T/C
Assay: NCI In Vivo Anticancer Drug Screen. Data for tumor model P388 Leukemia (intraperitoneal) in CD2F1 (CDF1) mice
Conditions: endpoint: median survival time, higher = longer survival
Summary of the method: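 Mice carrying the transplanted tumor received test compound or vehicle. Survival was recorded in each group, and the value is the treated-group measurement divided by that of the vehicle-treated control group.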

[1] = dose: 12.5 mg/kg/injection, schedule: Q01DX009 (ip), vehicle: saline
[2] = dose: 50.0 mg/kg/injection, schedule: Q01DX009 (ip), vehicle: Klucel (hydroxypropylcellulose) (HPC)
[3] = dose: 100.0 mg/kg/injection, schedule: Q01DX009 (ip), vehicle: Klucel (hydroxypropylcellulose) (HPC)
[4] = dose: 200.0 mg/kg/injection, schedule: Q01DX009 (ip), vehicle: Klucel (hydroxypropylcellulose) (HPC)
[5] = dose: 100.0 mg/kg/injection, schedule: Q01DX009 (ip), vehicle: saline with Tween-80
[6] = dose: 200.0 mg/kg/injection, schedule: Q01DX009 (ip), vehicle: saline with Tween-80
[7] = dose: 400.0 mg/kg/injection, schedule: Q01DX009 (ip), vehicle: saline with Tween-80
[8] = dose: 100.0 mg/kg/injection, schedule: Q04DX002 (ip), vehicle: saline with Tween-80
[9] = dose: 200.0 mg/kg/injection, schedule: Q04DX002 (ip), vehicle: saline with Tween-80
[10] = dose: 12.5 mg/kg/injection, schedule: Q01DX009 (ip), vehicle: saline with Tween-80
[11] = dose: 25.0 mg/kg/injection, schedule: Q01DX009 (ip), vehicle: saline with Tween-80
[12] = dose: 50.0 mg/kg/injection, schedule: Q01DX009 (ip), vehicle: saline with Tween-80
[13] = dose: 50.0 mg/kg/injection, schedule: Q01DX009 (ip), vehicle: saline
[14] = dose: 100.0 mg/kg/injection, schedule: Q01DX009 (ip), vehicle: saline
[15] = dose: 200.0 mg/kg/injection, schedule: Q01DX009 (ip), vehicle: saline
[16] = dose: 25.0 mg/kg/injection, schedule: Q01DX009 (ip), vehicle: saline
[17] = dose: 50.0 mg/kg/injection, schedule: Q01DX005 (ip), vehicle: Klucel (hydroxypropylcellulose) (HPC)
[18] = dose: 50.0 mg/kg/injection, schedule: Q01DX005 (ip), vehicle: saline with Tween-80
[19] = dose: 100.0 mg/kg/injection, schedule: Q01DX005 (ip), vehicle: saline with Tween-80

Measured: T/C

COc1cc(Cc2nnc(N)nc2N)cc(OC)c1OC
inactive: dose: 100.0 mg/kg/injection, schedule: Q01DX001 (ip), vehicle: Klucel (hydroxypropylcellulose) (HPC) 100 % of control | dose: 200.0 mg/kg/injection, schedule: Q01DX001 (ip), vehicle: Klucel (hydroxypropylcellulose) (HPC) 114 % of control | dose: 400.0 mg/kg/injection, schedule: Q01DX001 (ip), vehicle: Klucel (hydroxypropylcellulose) (HPC) 96 % of control

CSCCC([NH-])C(=O)O.CSCCC([NH-])C(=O)O.[Ni+2] (stereo not drawn)
inactive: dose: 0.79 mg/kg/injection, schedule: Q01DX009 (ip), vehicle: saline 92 % of control | dose: 1.56 mg/kg/injection, schedule: Q01DX009 (ip), vehicle: saline 96 % of control | dose: 3.12 mg/kg/injection, schedule: Q01DX009 (ip), vehicle: saline 97 % of control | [1] 94 % of control

Nc1nc(N)c(C(=O)SCc2ccccc2)nc1Cl
inactive: [2] 107 % of control | [3] 95 % of control | [4] 91 % of control

S=c1[nH]c2cc(Cl)ccc2s1
inactive: [5] 109 % of control | dose: 100.0 mg/kg/injection, schedule: Q04DX003 (ip), vehicle: saline with Tween-80 100 % of control | dose: 200.0 mg/kg/injection, schedule: Q04DX003 (ip), vehicle: saline with Tween-80 104 % of control | dose: 400.0 mg/kg/injection, schedule: Q04DX003 (ip), vehicle: saline with Tween-80 109 % of control

Cc1ccccc1NC(=O)c1ccc([N+](=O)[O-])cc1
inactive: [5] 100 % of control | [6] 104 % of control | [7] 90 % of control

COc1ccc2c([O-])c3[n+](cc2c1OC)CCc1cc2c(cc1-3)OCO2
inactive: dose: 50.0 mg/kg/injection, schedule: Q04DX002 (ip), vehicle: saline with Tween-80 103 % of control | [8] 106 % of control | [9] 102 % of control

Nc1cc(Cl)c(Cl)cc1Cl
inactive: [10] 100 % of control | [11] 95 % of control | [12] 90 % of control

CC1=NN(c2ccccc2)C(=O)C1N=Nc1ccccc1S(=O)(=O)O (stereo not drawn)
inactive: [13] 108 % of control | [14] 109 % of control | [15] 111 % of control

COc1c(C)[nH]ccc1=O
inactive: [1] 102 % of control and 105 % of control | [16] 101 % of control and 103 % of control | [13] 99 % of control and 102 % of control | [14] 99 % of control and 105 % of control | [15] 104 % of control and 107 % of control | dose: 400.0 mg/kg/injection, schedule: Q01DX009 (ip), vehicle: saline 104 % of control and 106 % of control

COc1ccccc1NC(CCN1CCCCC1)=NC(C)(C)C
inactive: [12] 111 % of control | [5] 106 % of control | [6] 104 % of control

O=C(/C=C(/SS/C(=C/C(=O)c1ccccc1)c1ccccc1)c1ccccc1)c1ccccc1
inactive: [2] 98 % of control | [3] 98 % of control | [4] 91 % of control

NC(=O)C1CNCC(C(N)=O)C1 (stereo not drawn)
inactive: [13] 100 % of control and 98 % of control | [14] 98 % of control | [15] 99 % of control

O=S(=O)(O/C(=C(\OS(=O)(=O)C(F)(F)F)c1ccccc1)c1ccccc1)C(F)(F)F
inactive: [17] 97 % of control | dose: 100.0 mg/kg/injection, schedule: Q01DX005 (ip), vehicle: Klucel (hydroxypropylcellulose) (HPC) 98 % of control | dose: 200.0 mg/kg/injection, schedule: Q01DX005 (ip), vehicle: Klucel (hydroxypropylcellulose) (HPC) 91 % of control

COc1cccc2c1C(=O)c1c(O)c3c(c(O)c1C2=O)CC(O)(C(C)=O)CC3OC1CC(N=CN(C)C)C(O)C(C)O1 (stereo not drawn)
inactive: dose: 3.13 mg/kg/injection, schedule: Q04DX003 (ip), vehicle: distilled water + Tween-80 103 % of control | dose: 6.25 mg/kg/injection, schedule: Q04DX003 (ip), vehicle: distilled water + Tween-80 110 % of control | dose: 12.5 mg/kg/injection, schedule: Q04DX003 (ip), vehicle: distilled water + Tween-80 99 % of control and 119 % of control | dose: 50.0 mg/kg/injection, schedule: Q04DX003 (ip), vehicle: distilled water + Tween-80 123 % of control

O=C1C2=Nc3ccccc3C(O)N2c2ccccc21 (stereo not drawn)
inactive: [10] 88 % of control | [11] 89 % of control | [12] 90 % of control and 97 % of control | [5] 93 % of control | [6] 94 % of control

CC(=O)C(C(C)=O)=[Se](c1ccccc1)c1ccccc1
inactive: dose: 100.0 mg/kg/injection, schedule: Q04DX002 (ip), vehicle: saline 99 % of control | dose: 200.0 mg/kg/injection, schedule: Q04DX002 (ip), vehicle: saline 100 % of control | dose: 400.0 mg/kg/injection, schedule: Q04DX002 (ip), vehicle: saline 99 % of control

CCCCn1ccnc1C
inactive: dose: 6.25 mg/kg/injection, schedule: Q01DX009 (ip), vehicle: saline 109 % of control | [1] 91 % of control | [16] 103 % of control

O=C1NCCc2ccc(cc2)OC2CCNC2C(=O)N2CCCC12 (stereo not drawn)
inactive: dose: 12.5 mg/kg/injection, schedule: Q01DX005 (ip), vehicle: Klucel (hydroxypropylcellulose) (HPC) 96 % of control | dose: 25.0 mg/kg/injection, schedule: Q01DX005 (ip), vehicle: Klucel (hydroxypropylcellulose) (HPC) 107 % of control | [17] 100 % of control

COc1ccc(C(c2cc3c(cc2O)OCO3)N2CCCCC2)c(OC)c1 (stereo not drawn)
inactive: dose: 60.0 mg/kg/injection, schedule: Q01DX005 (ip), vehicle: Klucel (hydroxypropylcellulose) (HPC) 108 % of control | dose: 120.0 mg/kg/injection, schedule: Q01DX005 (ip), vehicle: Klucel (hydroxypropylcellulose) (HPC) 110 % of control | dose: 240.0 mg/kg/injection, schedule: Q01DX005 (ip), vehicle: Klucel (hydroxypropylcellulose) (HPC) 117 % of control

C1CCC(NC2CCCCC2)CC1
inactive: dose: 12.5 mg/kg/injection, schedule: Q01DX005 (ip), vehicle: saline 103 % of control | dose: 23.7 mg/kg/injection, schedule: Q01DX005 (ip), vehicle: saline 100 % of control | dose: 25.0 mg/kg/injection, schedule: Q01DX005 (ip), vehicle: saline 102 % of control | dose: 35.6 mg/kg/injection, schedule: Q01DX005 (ip), vehicle: saline 100 % of control | dose: 50.0 mg/kg/injection, schedule: Q01DX005 (ip), vehicle: saline 100 % of control | dose: 53.3 mg/kg/injection, schedule: Q01DX005 (ip), vehicle: saline 100 % of control | dose: 80.0 mg/kg/injection, schedule: Q01DX005 (ip), vehicle: saline 100 % of control | dose: 100.0 mg/kg/injection, schedule: Q01DX005 (ip), vehicle: saline 93 % of control | dose: 200.0 mg/kg/injection, schedule: Q01DX005 (ip), vehicle: saline 102 % of control

Cc1cc(C)n(P2(n3nc(C)cc3C)=NP(n3nc(C)cc3C)(n3nc(C)cc3C)=NP(n3nc(C)cc3C)(n3nc(C)cc3C)=N2)n1
inactive: [18] 98 % of control | [19] 98 % of control | dose: 200.0 mg/kg/injection, schedule: Q01DX005 (ip), vehicle: saline with Tween-80 99 % of control

CCC(CC)N(C)C(C)(C)CO
inactive: dose: 50.0 mg/kg/injection, schedule: Q04DX003 (ip), vehicle: saline sonified 96 % of control | dose: 100.0 mg/kg/injection, schedule: Q04DX003 (ip), vehicle: saline sonified 100 % of control

CCOC(=O)C1(N=O)CCCCC1=O (stereo not drawn)
inactive: dose: 100.0 mg/kg/injection, schedule: Q01DX001 (ip), vehicle: alcohol 103 % of control | dose: 200.0 mg/kg/injection, schedule: Q01DX001 (ip), vehicle: alcohol 97 % of control | dose: 400.0 mg/kg/injection, schedule: Q01DX001 (ip), vehicle: alcohol 108 % of control

CCOC(=O)C[n+]1cc2ccccc2cc1C
inactive: [18] 94 % of control | [19] 108 % of control

CCC(CO)N=C(C1=C(O)c2ccccc2C1=O)c1ccccc1 (stereo not drawn)
inactive: [8] 104 % of control | [9] 92 % of control

OC1CC2c3ccccc3C1C1CCCCN21 (stereo not drawn)
inactive: dose: 12.5 mg/kg/injection, schedule: Q04DX002 (ip), vehicle: saline 106 % of control | dose: 25.0 mg/kg/injection, schedule: Q04DX002 (ip), vehicle: saline 109 % of control | dose: 50.0 mg/kg/injection, schedule: Q04DX002 (ip), vehicle: saline 106 % of control

Cc1[nH]c(=O)[nH]c(=O)c1CO
inactive: [12] 100 % of control | [5] 102 % of control | [6] 101 % of control | [7] 100 % of control
